Legend:
MOLM-13 = assay: SEQ ID NO: 14 assay (Example 5, DiOC6 flow cytometry); type: cell-based; conditions: non-permeabilized, DiOC6 MFI vs CCCP and water
[1] = system: subject samples (AML blast cells); assay: SEQ ID NO: 14 assay (Example 5) on subject samples; type: cell-based, human
Procedure: (§1) Leukocytes are isolated from primary bone marrow aspirates using ficoll preparation. Leukocytes may be fresh or frozen. If frozen, the sample is thawed prior to testing. Incubate the sample in RPMI with DNase 1 in 37° C. incubator for 60 minutes. Cells are then pelleted, blocked in PBS with 1% BSA for 15 minutes on ice, followed by staining for 30 minutes on ice in the dark. After staining, cells are pelleted and resuspended in DTEB with Ryanodine (30 nM) and Oligomycin. After incubating in a 37° C. incubator for 30 minutes, the sample is separated into fluorescent-activated cell sorting (FACS) tubes and treated with either water (negative control), CCCP (positive control) or SEQ ID NO:14 (subject dependency) and incubated in a 37° incubator for 60 minutes. DiOC6, a cationic mitochondrial dye is then added and incubated for 60 minutes in a 37° C. incubator. The cells are then analyzed via flow cytometry. Blast cells are isolated by gating on the CD45 dim, CD13, CD33 and CD34 high population of each sample. (See FIG. 3). Where indicated, cells may be further gated using CD3 and CD20. Dependency values are calculated using the median fluorescent intensity (MFI) of DiOC6 in each sample according to the following equation: […]

MOLM-13 cells = assay: Whole cell assay, JC-1 mitochondrial potential, cells lacking digitonin (FIG. 1B); type: cell-based; conditions: 100 μM peptide, no digitonin
Procedure: (§2) Briefly, frozen MOLM-13 and OCI-AML3 cell stocks were rapidly thawed, and cell viability was determined by Trypan Blue exclusion. Cells were washed in PBS and resuspended in DTEB (or MEB) buffer (135 mM Trehalose [or 150 mM Mannitol], 10 mM HEPES, 50 mM KCl, 20 μMI EGTA, 20 μM EDTA, 0.1% BSA, and 5 mM succinate). The profiling peptides and NOXA ([…]; SEQ ID NO:16) were reconstituted in water to make working solutions allowing for final concentrations of: SEQ ID NO:1 (100 μM), SEQ ID NO:14 (100 μM), SEQ ID NO:15 (100 μM), and NOXA (100 μM). […] Profiling peptides, controls, or NOXA (for comparison purposes) were first added to a microplate. Cells (4×10^5) resuspended in DTEB or MEB buffers were then added to a staining solution ([…], 40 μM JC-1, 1 M 2-mercaptoethanol, DTEB or MEB buffer), before being added to the wells of the microplate in the above (for non-digitonin-treated samples, digitonin was not added to the staining solution above). The mixture was then incubated for up to 2 hours at 30° C., in order for cell permeabilization (if needed), delivery of peptides or compounds, and mitochondrial depolarization to occur. Fluorescence signal of each well was assessed using an Envision multilabel plate reader at Ex475/Em530 and Ex530/Em595. […]

OCI-AML3 = assay: SEQ ID NO: 14 assay (Example 5, DiOC6 flow cytometry); type: cell-based; conditions: non-permeabilized, DiOC6 MFI vs CCCP and water
[2] = system: MOLM-13 and OCI-AML3 cells; assay: Whole cell assay, JC-1 mitochondrial potential, permeabilized and non-permeabilized cells; type: cell-based; conditions: 100 μM, normalized mitochondrial potential
Procedure: as §2

MV4-11 = assay: SEQ ID NO: 14 assay (Example 5, DiOC6 flow cytometry); type: cell-based; conditions: non-permeabilized, DiOC6 MFI vs CCCP and water
Procedure: as §1
NOXA assay results were compared to the results of the assay described in Example 5.

KG-1 = assay: as above; type: cell-based; conditions: non-permeabilized, DiOC6 MFI vs CCCP and water
U-937 = assay: as above; type: cell-based; conditions: non-permeabilized, DiOC6 MFI vs CCCP and water
HL-60 = assay: as above; type: cell-based; conditions: non-permeabilized, DiOC6 MFI vs CCCP and water
THP-1 = assay: as above; type: cell-based; conditions: non-permeabilized, DiOC6 MFI vs CCCP and water
[3] = Sample # 17, subject treated with FLAM, complete response
[4] = Sample # 18, subject treated with FLAM, complete response
[5] = Sample # 19, subject treated with FLAM, complete response

YGRKKRRQRRRGGGRPEIWMTQGLRRLGDEINAYYAR (profiling peptide sequence) [SEQ ID NO:14]
SEQ ID NO: 14 Dependency % (MOLM-13): 20.78% | SEQ ID NO: 14 Dependency % ([1]; Sample # 1): 18.0% | SEQ ID NO: 14 Result (Pos/Neg) ([1]; Sample # 1): Neg (Concordance based on cutoff of ≥40% MCL-1 Dependency for both methods.) | SEQ ID NO: 14 Dependency % ([1]; Sample # 2): 44.9% | SEQ ID NO: 14 Result (Pos/Neg) ([1]; Sample # 2): Pos (Concordance based on cutoff of ≥40% MCL-1 Dependency for both methods.) | SEQ ID NO: 14 Dependency % ([1]; Sample # 3): 53.8% | SEQ ID NO: 14 Result (Pos/Neg) ([1]; Sample # 3): Pos (Concordance based on cutoff of ≥40% MCL-1 Dependency for both methods.) | SEQ ID NO: 14 Dependency % ([1]; Sample # 4): 26.7% | SEQ ID NO: 14 Result (Pos/Neg) ([1]; Sample # 4): Neg (Concordance based on cutoff of ≥40% MCL-1 Dependency for both methods.) | SEQ ID NO: 14 Dependency % ([1]; Sample # 5): 70.8% | SEQ ID NO: 14 Result (Pos/Neg) ([1]; Sample # 5): Pos (Concordance based on cutoff of ≥40% MCL-1 Dependency for both methods.) | SEQ ID NO: 14 Dependency % ([1]; Sample # 6): 44.3% | SEQ ID NO: 14 Result (Pos/Neg) ([1]; Sample # 6): Pos (Concordance based on cutoff of ≥40% MCL-1 Dependency for both methods.) | SEQ ID NO: 14 Dependency % ([1]; Sample # 7): 48.1% | SEQ ID NO: 14 Result (Pos/Neg) ([1]; Sample # 7): Pos (Concordance based on cutoff of ≥40% MCL-1 Dependency for both methods.) | SEQ ID NO: 14 Dependency % ([1]; Sample # 8): 17.0% | SEQ ID NO: 14 Result (Pos/Neg) ([1]; Sample # 8): Neg (Concordance based on cutoff of ≥40% MCL-1 Dependency for both methods.) | SEQ ID NO: 14 Dependency % ([1]; Sample # 9): 71.8% | SEQ ID NO: 14 Result (Pos/Neg) ([1]; Sample # 9): Pos (Concordance based on cutoff of ≥40% MCL-1 Dependency for both methods.) | SEQ ID NO: 14 Dependency % ([1]; Sample # 10): 0.0% | SEQ ID NO: 14 Result (Pos/Neg) ([1]; Sample # 10): Neg (Concordance based on cutoff of ≥40% MCL-1 Dependency for both methods.) | SEQ ID NO: 14 Dependency % ([1]; Sample # 11): 40.6% | SEQ ID NO: 14 Result (Pos/Neg) ([1]; Sample # 11): Pos (Concordance based on cutoff of ≥40% MCL-1 Dependency for both methods.) | SEQ ID NO: 14 Dependency % ([1]; Sample # 12): 38.3% | SEQ ID NO: 14 Result (Pos/Neg) ([1]; Sample # 12): Neg (Concordance based on cutoff of ≥40% MCL-1 Dependency for both methods.) | SEQ ID NO: 14 Dependency % ([1]; Sample # 13): 35.2% | SEQ ID NO: 14 Result (Pos/Neg) ([1]; Sample # 13): Neg (Concordance based on cutoff of ≥40% MCL-1 Dependency for both methods.) | SEQ ID NO: 14 Dependency % ([1]; Sample # 14): 2.6% | SEQ ID NO: 14 Result (Pos/Neg) ([1]; Sample # 14): Neg (Concordance based on cutoff of ≥40% MCL-1 Dependency for both methods.) | SEQ ID NO: 14 Dependency % ([1]; Sample # 15): 0.0% | SEQ ID NO: 14 Result (Pos/Neg) ([1]; Sample # 15): Neg (Concordance based on cutoff of ≥40% MCL-1 Dependency for both methods.) | SEQ ID NO: 14 Dependency % ([1]; Sample # 16): 0.1% | SEQ ID NO: 14 Result (Pos/Neg) ([1]; Sample # 16): Neg (Concordance based on cutoff of ≥40% MCL-1 Dependency for both methods.) | SEQ ID NO: 14 Dependency % [1, 3]: 62.4% | SEQ ID NO: 14 Result (Pos/Neg) [1, 3]: Pos (Concordance based on cutoff of ≥40% MCL-1 Dependency for both methods.) | SEQ ID NO: 14 Dependency % [1, 4]: 55.0% | SEQ ID NO: 14 Result (Pos/Neg) [1, 4]: Pos (Concordance based on cutoff of ≥40% MCL-1 Dependency for both methods.) | SEQ ID NO: 14 Dependency % [1, 5]: 27.8% | SEQ ID NO: 14 Result (Pos/Neg) [1, 5]: Neg (Concordance based on cutoff of ≥40% MCL-1 Dependency for both methods.) | activity compared to the positive control (FCCP) (MOLM-13 cells): exceeded the activity of the positive control | SEQ ID NO: 14 Dependency % (OCI-AML3): 19.40% | activity in the absence of digitonin compared to Mcl-1 binding domain alone or SEQ ID NO:15 [2]: superior activity | SEQ ID NO: 14 Dependency % (MV4-11): 5.0% | SEQ ID NO: 14 Dependency % (KG-1): 0.0% | SEQ ID NO: 14 Dependency % (U-937): 10.1% | SEQ ID NO: 14 Dependency % (HL-60): 24.5% | SEQ ID NO: 14 Dependency % (THP-1): 11.70%

Reference: patent US10422788B2, “Profiling peptides and methods for sensitivity profiling” (Tolero Pharmaceuticals, Inc., priority 2016, dated 2019)
